According to US9744244B2, “Amphipathic peptide” (The Queen's University of Belfast, priority 2012, dated 2017):
Where no end group is shown, it is not given here.

Legend:
[1] = Nanoparticle size and charge analysis (DLS, Laser Doppler Velocimetry, Malvern Zetasizer); type: physicochemical
Experimental: In order to obtain particle size and charge distributions the mean hydrodynamic particle size measurements RALA complexes were performed using Dynamic Light Scattering (DLS). Dynamic Light Scattering is based upon the principle that when particles are illuminated with a laser, due to Brownian motion there will be scattering of the light. The intensity of the scattered light fluctuates as a result of this Brownian motion caused by bombardment of the particles by solvent molecules. A correlation curve reflecting the decay rate is generated based on fluctuations of the scattered light where a slower correlation decay rate represents a slower moving particle. Based on the Stokes-Einstein equation larger particles move more slowly and, thus, the correlation function can be used to determine the size distribution of the particles. dynamic light scattering (DLS) was used.
Surface charge measurements of the RALA nanoparticles were determined by Laser Doppler Velocimetry. The zeta potential of the particles was measured using disposable foltable zeta cuvettes. […]
The nanoparticles were made up at an appropriate range of N:P ratios with at least using 2 μg of DNA in each sample. Nanoparticles were analysed using either and analysis was completed on either the Zetasizer-HS3000 (Malvern Instruments) or the Zetasizer-Nano instrument with DTS software (Malvern Instruments, UK). […]

[2] = tested on: ZR-75-1 cells; assay: Transfection of ZR-75-1 cells, GFP expression by flow cytometry; type: cell-based
Experimental: In order to test the RALA in vitro, small scale transfections were performed carried out. 5×10^4 cells were seeded onto each well of a 96 well plate and the cells incubated under with complete medium standard conditions for 48 hours. The medium was subsequently removed from the plates and 100 μl of transfection medium (Optimem Invitrogen, UK) was added to each well. Cells were incubated for 2 hours at 37° C. and 5% CO2 standard conditions. In the meanwhile complexes were made up using 1 μg of plasmid DNA with the RALA vector and added to the cells when the two hours had passed. 100 μl of the each N:P ratio were added to each well of the cells. Cells were then incubated for a further 4 hours under standard conditions and the medium with RPMI-1640 supplemented with +10% FCS. (FIG. 4, 31 (+Chloroquine), 32 (+Bafilomycin), 33 (+KALA NPs), 34 (+Lipofectamine), 35).
ZR-75-1 & PC-3 cells that were transfected with RALA/pEGFP-N1 complexes were trypsinised and washed twice with 2% formaldehyde in phosphate buffered saline. The expression of green fluorescent protein was measured by flow cytometry using FACS calibur system (BD Bioscience, UK). The data was analysed using the Flo-Jo software program and fluorescent intensity is reported at 4% gating. (FIG. 7b, 11, 31, 32, 33, 34, 35, 57 (+RAT/pEGFP-N1)).

[3] = tested on: C57/BL6 mice; assay: Immune response on repeated administration (ELISA, Greiss test on serum); type: in vivo; settings: first week, compared with PEI only

Sequence | ability to condense DNA into nanoparticles [1] | ability to transfect cells [2] | initial TNFα response [3]
WEARLARALARALARHLRACEA (22mer protein sequence (Table 2)) [Peptide 22mer, comparative peptide] | unable to condense DNA into nanoparticles | unable to condense DNA into nanoparticles and transfect cells | 
WEARLARALARALARHLARALARALRACEA [RALA] |  |  | significantly lower initial response of TNFα than the PEI only treated animals
